# System: adipocytes
# Test: 3H-glucose uptake into adipocytes (fat cell assay, FFC)
# Assay type: cell-based, Mouse
# Design: key to FFC: 0 is no effect; + is agonist; - is antagonist
row,Compound,FFC
1,CC(C)[C@@H](NC(=O)[C@@H](Cc1ccccc1)NC(=O)[C@@H](Cc1c[nH]c2ccccc12)NC(=O)[C@@H](CC(=O)O)NC(=O)[C@@H](Cc1ccc(O)cc1)NC(=O)[C@@H](Cc1ccccc1)NC(=O)[C@@H](CC(N)=O)NC(=O)[C@@H](CCC(=O)O)NC(=O)[C@@H](Cc1c[nH]cn1)NC(=O)[C@H](N)Cc1ccccc1)C(=O)N[C@H](CCCNC(=N)N)C(=O)N[C@H](CCC(N)=O)C(=O)N[C@@H](C(=O)N[C@H](CO)C(=O)N[C@H](CCCCN)C(=O)N[C@H](CCCCN)C(=O)O)C(C)C [Clone S114],0
2,CC[C@H](C)[C@H](NC(=O)[C@H](C)NC(=O)[C@H](CC(N)=O)NC(=O)[C@H](Cc1ccc(O)cc1)NC(=O)[C@H](Cc1ccccc1)NC(=O)CNC(=O)[C@H](CC(=O)O)NC(=O)[C@@H](N)CO)C(=O)N[C@@H](CCC(=O)O)C(=O)N[C@@H](CC(C)C)C(=O)N[C@@H](CC(C)C)C(=O)N[C@@H](CO)C(=O)O [Clone S118],+
3,CC(C)C[C@H](NC(=O)CNC(=O)[C@H](CCC(N)=O)NC(=O)[C@H](Cc1ccccc1)NC(=O)[C@H](Cc1ccc(O)cc1)NC(=O)[C@H](CO)NC(=O)[C@H](Cc1ccc(O)cc1)NC(=O)[C@H](Cc1ccccc1)NC(=O)[C@H](CC(=O)O)NC(=O)[C@H](CO)NC(=O)[C@@H](N)Cc1c[nH]c2ccccc12)C(=O)N[C@@H](CC(=O)O)C(=O)O [Clone S127],0
4,CC(C)[C@H](NC(=O)[C@H](Cc1ccccc1)NC(=O)[C@H](Cc1c[nH]c2ccccc12)NC(=O)[C@H](CC(=O)O)NC(=O)[C@H](Cc1ccc(O)cc1)NC(=O)[C@H](Cc1ccccc1)NC(=O)[C@H](CC(N)=O)NC(=O)[C@H](CCC(=O)O)NC(=O)[C@H](Cc1c[nH]cn1)NC(=O)[C@@H](N)Cc1ccccc1)C(=O)N[C@@H](CCCNC(=N)N)C(=O)N[C@@H](CCC(N)=O)C(=O)N[C@H](C(=O)N[C@@H](CO)C(=O)N[C@@H](CCCCN)C(=O)N[C@@H](CCCCN)C(=O)N[C@@H](CNC(=O)CON)C(N)=O)C(C)C [Clone S131],+
5,CC(C)[C@H](NC(=O)[C@H](Cc1ccccc1)NC(=O)[C@H](Cc1c[nH]c2ccccc12)NC(=O)CNC(=O)[C@H](Cc1ccc(O)cc1)NC(=O)[C@H](Cc1ccccc1)NC(=O)[C@H](CC(N)=O)NC(=O)[C@H](CCC(=O)O)NC(=O)[C@@H](N)Cc1c[nH]cn1)C(=O)N[C@@H](CCCNC(=N)N)C(=O)N[C@@H](CCC(N)=O)C(=O)N[C@H](C(=O)N[C@@H](CO)C(=O)N[C@@H](CCCCN)C(=O)N[C@@H](CCCCN)C(=O)O)C(C)C [Clone S137],0
6,CC(C)[C@H](NC(=O)[C@H](Cc1ccccc1)NC(=O)[C@H](Cc1c[nH]c2ccccc12)NC(=O)[C@H](CC(=O)O)NC(=O)[C@H](Cc1ccc(O)cc1)NC(=O)[C@H](Cc1ccccc1)NC(=O)[C@H](CC(N)=O)NC(=O)[C@H](CCC(=O)O)NC(=O)[C@H](Cc1c[nH]cn1)NC(=O)[C@@H](N)Cc1ccccc1)C(=O)N[C@@H](CCCNC(=N)N)C(=O)N[C@@H](CCC(N)=O)C(=O)N[C@H](C(=O)N[C@@H](CO)C(=O)N[C@@H](CCCCN)C(=O)N[C@@H](CCCCN)C(=O)NCC[C@H](NC(=O)[C@H](CCCCN)NC(=O)[C@H](CCCCN)NC(=O)[C@H](CO)NC(=O)[C@@H](NC(=O)[C@H](CCC(N)=O)NC(=O)[C@H](CCCNC(=N)N)NC(=O)[C@@H](NC(=O)[C@H](Cc1ccccc1)NC(=O)[C@H](Cc1c[nH]c2ccccc12)NC(=O)[C@H](CC(=O)O)NC(=O)[C@H](Cc1ccc(O)cc1)NC(=O)[C@H](Cc1ccccc1)NC(=O)[C@H](CC(N)=O)NC(=O)[C@H](CCC(=O)O)NC(=O)[C@H](Cc1c[nH]cn1)NC(=O)[C@@H](N)Cc1ccccc1)C(C)C)C(C)C)C(N)=O)C(C)C [Clone S152],+

# Reference: EP1383793B1 (priority 2000, dated 2001)
